{"source": "paper PMC5562805", "about": "“Overcoming the plasticity of plant specialized metabolism for selective diterpene production in yeast” (Scientific Reports, 2017)", "biological_target": "T1, CYP76AK6 (Salvia pomifera, UniProt A0A0S1TPC7)", "T1 construct": "expressed in S. cerevisiae (pESC-Trp) with CYP76AH24 variant and Populus trichocarpa CPR2", "T1 sequence (A0A0S1TPC7 1-500)": "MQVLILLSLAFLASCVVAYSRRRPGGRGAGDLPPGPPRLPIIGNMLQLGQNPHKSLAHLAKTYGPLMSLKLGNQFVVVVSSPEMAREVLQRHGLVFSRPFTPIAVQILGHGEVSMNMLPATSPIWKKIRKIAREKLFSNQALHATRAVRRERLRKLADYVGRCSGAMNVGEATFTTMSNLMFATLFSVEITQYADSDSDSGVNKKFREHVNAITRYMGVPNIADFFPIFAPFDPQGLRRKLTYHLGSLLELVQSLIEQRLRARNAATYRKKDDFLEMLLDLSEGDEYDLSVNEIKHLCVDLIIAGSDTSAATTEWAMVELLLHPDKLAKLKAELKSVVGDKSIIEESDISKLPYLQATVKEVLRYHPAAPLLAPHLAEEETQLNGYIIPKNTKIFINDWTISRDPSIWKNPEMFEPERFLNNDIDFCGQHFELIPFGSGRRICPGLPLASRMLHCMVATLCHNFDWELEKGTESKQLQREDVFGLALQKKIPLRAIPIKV", "assay": "product titre in engineered yeast cells, GC", "type": "cell-based", "details": "C-20 oxidation to pisiferic acid; co-expressed CYP76AH24(F112L), CPR2, Cytb5"}
{"compound": "CC(C)c1cc2c(cc1O)[C@@]1(C)CCCC(C)(C)[C@@H]1CC2", "note": "[ferruginol]", "values": [{"measurement": "product titre in engineered yeast cells, GC", "result": "CYP76AH24(F112L) variant enabled the complete shift from carnosic acid to pisiferic acid production in yeast"}]}
